The first assay concerns PGE2 production. Kind of assay: Inhibition of UVB-induced PGE2 production in cultured human keratinocytes (PGE2 assay kit, calibrated with MTT absorbance). Format: cell-based.
Details: not given
As to the method:
Human keratinocytes were seeded at a density of 1×10^5 cells/well to 6-well plates containing 2 mL of KGM(keratinocyte growth medium, Clonetics, San Diego, Calif., USA) per well and cultured overnight. Then, the medium was replaced with KBM(keratinocyte basal medium) supplemented with 0.1% BSA(bovine serum albumin) and the cells were cultured for an additional 24 hours. Subsequently, the cells were pre-treated for an additional 24 hours with 2 mL of the same medium containing 10 μg/ml of each of the dipeptides listed in Table 1. […] The pre-treated medium was transferred to new 24 well plates and 1 mL of DPBS(Dulbecco's phosphate buffered saline) was added to the cells in each well. During UV irradiation, the transferred medium was stored in a cell incubator. […] At this time, the control was covered with aluminum foil. After the removal of DPBS, the transferred medium was returned to each well. The cells were further cultured for 24 hours, after which 1 mL of the medium was transferred to microcentrifuge tubes. […] The supernatants were then removed and the formazan crystals were solubilized in 1 ml of DMSO(dimethylsulfoxide). One hundred μL of the solution was transferred to each well of 96-well plates and an optical density was determined at 540 nm using an ELISA(enzyme-linked immunosorbent assay) reader. […] The concentration of PGE2 was determined using a PGE2 Assay Kit(KGE004, R&D Systems, Inc., Minneapolis, Minn., USA) according to the manufacturer's instruction. […] After removal of the reaction, the wells were washed five times with 400 μL of wash buffer. To each well was added 200 μL of a substrate solution, followed by incubation for 20 30 min. The reaction was terminated with 50 μL of a stop solution per well before determining absorbance at 450 nm on an ELISA reader. The PGE2 concentration of each sample was calculated from the standard graph and calibrated with the absorbance obtained in the MTT assay to determine their inhibitory activity against PGE2 production.
Turning to asparagine-histidine [NH], the “% Inhibition against PGE2 Production” value is recorded as 65.8%.
On the same count and under the same terms, next, proline-tyrosine [PY]: 24.8%; histidine-serine [HS]: 53.2%.
On the same count and under the same terms, then methionine-threonine [MT], with 71.2%; and histidine-tyrosine [HY], with 77.9%.
methionine-glutamine [MQ]: the “% Inhibition against PGE2 Production” value is recorded as 87.5%.
Still for that read-out and setting: next, proline-threonine [PT]: 21.7%; phenylalanine-tyrosine [FY]: 88.0%; arginine-proline [RP]: 88.7%.
Regarding alanine-tyrosine [AY], the “% Inhibition against PGE2 Production” value was 31.8%.
In the case of `N=C(N)NCCC[C@H](N)C(=O)O.NCC(=O)O` [RG, arginine-glycine], the “% Inhibition against PGE2 Production” value came to 82.8%.
On to `NCC(=O)O.N[C@@H](CCC(=O)O)C(=O)O` [EG, glutamic acid-glycine], for which the “% Inhibition against PGE2 Production” value amounted to 90.9%.
Turning to serine-methionine [SM], the “% Inhibition against PGE2 Production” value is given as 75.1%.
Still for that read-out and setting: then serine-histidine [SH], with 51.5%; and tyrosine-threonine [YT], with 91.5%; and proline-serine [PS], with 71.3%.
Regarding alanine-histidine [AH], the “% Inhibition against PGE2 Production” value was 64.7%.
Turning to `NCC(=O)O.O=C(O)[C@@H]1CCCN1` [PG, proline-glycine], the “% Inhibition against PGE2 Production” value was found to be 80.7%.
Same read-out and setting: then alanine-asparagine, with 58.8%; and tyrosine-lysine [YK], with 89.9%; and glutamic acid-proline [EP], with 80.8%.
Same read-out and setting: then tyrosine-aspartic acid [YD], with 88.0%; and proline-glutamine [PQ], with 78.1%; and isoleucine-histidine [IH], with 27.1%.
As to serine-proline [SP], the “% Inhibition against PGE2 Production” value was 94.7%.
Consider aspartic acid-asparagine [DN], for which the “% Inhibition against PGE2 Production” value was 85.6%.
Regarding lysine-tyrosine [KY], the “% Inhibition against PGE2 Production” value is 72.6%.
Consider asparagine-tyrosine [NY], for which the “% Inhibition against PGE2 Production” value is 58.1%.
Still for that read-out and setting: next, serine-tyrosine [SY]: 91.5%.
threonine-proline [TP]: the “% Inhibition against PGE2 Production” value amounted to 65.7%.
As to `NCC(=O)O.N[C@@H](CC(=O)O)C(=O)O` [GD, glycine-aspartic acid], the “% Inhibition against PGE2 Production” value is on record as 23.8%.
As for valine-cysteine [VC], the “% Inhibition against PGE2 Production” value worked out at 43.3%.

The same assay, now with this note: 10 μg/ml dipeptide, 24 h pre-treatment, human keratinocytes, UVB 100 mJ/cm^2, medium assayed 24 h after irradiation; 0% or lower expressed as zero; 10% or more regarded as effective.
Regarding valine-alanine, the “% Inhibition against PGE2 Production” value turned out to be 64.7%.
Still for that read-out and setting: then `NCC(=O)O.N[C@@H](Cc1c[nH]c2ccccc12)C(=O)O` [WG, tryptophan-glycine], with 91.3%.
As for histidine-phenylalanine [HF], the “% Inhibition against PGE2 Production” value was 43.2%.
Turning to histidine-histidine [HH], the “% Inhibition against PGE2 Production” value amounted to 79.8%.
The same measure, in the same setting: then alanine-alanine [AA], with 78.4%; and glycine-alanine [GA], with 17.6%.

Staying with this assay, now noted: 10 μg/ml dipeptide, 24 h pre-treatment, human keratinocytes, UVB 100 mJ/cm^2, medium assayed 24 h after irradiation; […]; 10% or more regarded as effective.
Turning to aspartic acid-leucine [DL], the “% Inhibition against PGE2 Production” value is reported as 75.8%.
Same read-out and setting: then phenylalanine-arginine [FR], with 92.9%; and glutamic acid-alanine [EA], with 55.3%; and alanine-arginine, with 95.7%.
On the same count and under the same terms, then alanine-glutamic acid [AE], with 74.6%.
Take alanine-serine [AS]: the “% Inhibition against PGE2 Production” value is listed as 72.5%.
With arginine-aspartic acid [RD], the “% Inhibition against PGE2 Production” value amounted to 24.1%.
The same measure, in the same setting: next, alanine-lysine [AK]: 90.3%; glutamine-tryptophan [QW]: 42.8%; tryptophan-glutamic acid [WE]: 79.9%.
Consider tryptophan-serine [WS], for which the “% Inhibition against PGE2 Production” value was 89.0%.
glutamine-lysine [QK]: the “% Inhibition against PGE2 Production” value stood at 25.9%.
Same read-out and setting: then lysine-aspartic acid [KD], with 90.3%.
Still for that read-out and setting: next, threonine-serine [TS]: 55.7%.
Consider arginine-lysine [RK], for which the “% Inhibition against PGE2 Production” value came to 88.2%.
On the same count and under the same terms, then leucine-threonine [LT], with 53.4%; and valine-isoleucine [VI], with 51.7%.
Same read-out and setting: next, asparagine-arginine [NR]: 72.8%; arginine-serine [RS]: 50.3%; leucine-valine [LV]: 79.9%.
As for aspartic acid-valine [DV], the “% Inhibition against PGE2 Production” value stood at 30.7%.
The same measure, in the same setting: next, leucine-arginine [LR]: 52.0%.
Turning to serine-glutamic acid, the “% Inhibition against PGE2 Production” value is reported as 44.0%.
Same read-out and setting: then glutamine-arginine [QR], with 33.6%; and aspartic acid-alanine [DA], with 94.1%.
Regarding phenylalanine-tryptophan [FW], the “% Inhibition against PGE2 Production” value stood at 92.9%.
In the case of isoleucine-aspartic acid, the “% Inhibition against PGE2 Production” value was determined as 64.6%.
Still for that read-out and setting: then serine-cysteine [SC], with 77.7%.
For the molecule tryptophan-cysteine [WC], the “% Inhibition against PGE2 Production” value came to 18.3%.
On the same count and under the same terms, next, lysine-cysteine [KC]: 20.2%; isoleucine-lysine [IK]: 71.3%.
Take arginine-leucine [RL]: the “% Inhibition against PGE2 Production” value is 30.4%.
The same measure, in the same setting: then phenylalanine-lysine [FK], with 73.3%.
Still for that read-out and setting: then glutamic acid-arginine [ER], with 72.8%.
Still for that read-out and setting: then cysteine-glutamic acid [CE], with 54.4%; and serine-glutamine [SQ], with 58.8%.
In the case of aspartic acid-serine [DS], the “% Inhibition against PGE2 Production” value was determined as 84.0%.
The same measure, in the same setting: next, tryptophan-tyrosine [WY]: 55.6%.
Still for that read-out and setting: next, tryptophan-lysine [WK]: 78.3%; arginine-cysteine [RC]: 95.1%.
Consider tryptophan-histidine [WH], for which the “% Inhibition against PGE2 Production” value is 96.1%.
As to leucine-glutamic acid, the “% Inhibition against PGE2 Production” value amounted to 92.8%.
In the case of arginine-threonine [RT], the “% Inhibition against PGE2 Production” value worked out at 27.5%.
Still for that read-out and setting: then glutamic acid-valine [EV], with 86.4%.
In the case of glutamic acid-lysine [EK], the “% Inhibition against PGE2 Production” value was found to be 76.5%.
Turning to aspartic acid-glutamic acid [DE], the “% Inhibition against PGE2 Production” value is 58.5%.
Take alanine-cysteine [AC]: the “% Inhibition against PGE2 Production” value came out at 70.8%.
Consider serine-isoleucine [SI], for which the “% Inhibition against PGE2 Production” value was found to be 50.3%.
For serine-arginine [SR], the “% Inhibition against PGE2 Production” value is 52.9%.
Still for that read-out and setting: next, alanine-leucine: 48.9%; arginine-glutamic acid [RE]: 58.8%.
For glutamine-phenylalanine [QF], the “% Inhibition against PGE2 Production” value is on record as 19.0%.
In the case of phenylalanine-aspartic acid [FD], the “% Inhibition against PGE2 Production” value was 13.7%.
As to glutamine-valine [QV], the “% Inhibition against PGE2 Production” value is 59.7%.
On the same count and under the same terms, next, valine-glutamic acid [VE]: 24.8%; isoleucine-valine [IV]: 70.9%.

The values above are taken from patent US20120070392A1, “COMPOSITION FOR INHIBITING ERYTHEMA CAUSED BY ULTRAVIOLET RADIATION CONTAINING A DIPEPTIDE AS ACTIVE INGREDIENT” (priority 2009, published 2012).
